# Legend:
# [1] = molecular target: human Adenosine A1 receptor (Homo sapiens (Human), UniProt P30542); assay: Adenosine receptor TR-FRET binding assay (A1); conditions: inhibition of binding of 100 nM CA200645, CHO cell membranes
# Protocol: (§1) Biological Example 1—Adenosine Receptor Time-Resolved Fluorescence Resonance Energy Transfer (TRFRET) Binding Assay
# (§2) All FRET binding experiments were conducted at room temperature in white 384-well plates, in assay binding buffer containing 1×LabMed (Cisbio, France), 100 μg/mL saponin, 1% DMSO and 0.02% pluronic acid. Binding of the fluorescently labelled Adenosine receptor antagonist XAC (CA200645, FRET acceptor) to terbium-labelled A1, A2a, A2b and A3 adenosine receptors (FRET donors) was detected by time-resolved FRET due to the close proximity of the donor and acceptor in a binding event. To investigate the ability of unlabelled test compounds to bind to Adenosine A1, A2a, A2b and A3 receptors, dose response curves were constructed that determined the ability of a range of concentrations to inhibit the binding of 30 nM CA200645 to the A2b receptor and 100 nM CA200645 to the A1, A2a, and A3 receptor.
# (§3) Serial dilution (1:3 dilutions) of test compounds in neat DMSO and transfer of a 400 nL sample of test compound into the assay plate was carried out using the Mosquito (TTP Labtech, UK). The compound samples were incubated for 2 hours at room temperature with a fixed concentration of CA200645 defined for each receptor (see above) and CHO cell membranes containing the human Adenosine A1 (0.5 μg/well), A2a (0.3 μg/well), A2b (1 μg/well) or A3 (1 μg/well) receptor in 40 μL of assay buffer. Total and non-specific binding of CA200645 was determined in the absence and presence of 10 μM XAC, respectively. Following 2 hours incubation, the level of CA200645 binding was detected on a Pherastar FSX (BMG Labtech, Germany) using standard TR-FRET settings. The terbium donor was excited with three laser flashes at a wavelength of 337 nm, and donor and acceptor emission was detected at 620 nm and 665 nm wavelengths, respectively. FRET ratios were obtained by multiplying the acceptor/donor ratio value by 10,000. Specific binding was determined by subtracting the non-specific binding FRET ratio from the total binding FRET ratio. Compound IC50 curves were analysed using GraphPad Prism 7.0 (GraphPad, USA) and Ki affinity values were determined from the obtained IC50 values using the method of Cheng and Prusoff.
# [2] = molecular target: human Adenosine A2a receptor (Homo sapiens (Human), UniProt P29274); assay: Adenosine receptor TR-FRET binding assay (A2a); conditions: inhibition of binding of 100 nM CA200645, CHO cell membranes
# human Adenosine A2a receptor, sequence (P29274 whole entry): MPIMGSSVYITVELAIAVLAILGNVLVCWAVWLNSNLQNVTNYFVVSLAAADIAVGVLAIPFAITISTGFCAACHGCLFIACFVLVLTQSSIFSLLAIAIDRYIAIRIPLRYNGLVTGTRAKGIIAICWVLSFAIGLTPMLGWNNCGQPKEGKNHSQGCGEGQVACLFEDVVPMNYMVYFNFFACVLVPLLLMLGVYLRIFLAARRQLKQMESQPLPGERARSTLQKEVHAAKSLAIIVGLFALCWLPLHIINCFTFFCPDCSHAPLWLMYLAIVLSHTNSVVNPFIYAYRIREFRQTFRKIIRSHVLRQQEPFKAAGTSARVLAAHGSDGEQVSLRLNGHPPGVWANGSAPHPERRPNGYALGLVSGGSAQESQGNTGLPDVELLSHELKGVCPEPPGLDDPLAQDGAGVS
# Protocol: as §1, §2, §3
# [3] = molecular target: human Adenosine A2b receptor (Homo sapiens (Human), UniProt P29275); assay: Adenosine receptor TR-FRET binding assay (A2b); conditions: TR-FRET, inhibition of binding of 30 nM CA200645, CHO cell membranes
# human Adenosine A2b receptor, sequence (P29275 whole entry): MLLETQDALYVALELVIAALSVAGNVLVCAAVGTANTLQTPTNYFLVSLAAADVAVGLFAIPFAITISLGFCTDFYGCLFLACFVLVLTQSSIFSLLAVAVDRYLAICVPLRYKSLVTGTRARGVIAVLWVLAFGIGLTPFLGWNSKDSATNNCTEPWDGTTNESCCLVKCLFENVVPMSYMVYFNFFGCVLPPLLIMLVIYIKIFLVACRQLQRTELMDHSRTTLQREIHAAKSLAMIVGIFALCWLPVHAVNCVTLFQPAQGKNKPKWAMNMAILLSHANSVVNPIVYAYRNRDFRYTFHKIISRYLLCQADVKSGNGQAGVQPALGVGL
# Protocol: as §1, §2, §3
# [4] = molecular target: human Adenosine A3 receptor (Homo sapiens (Human), UniProt P0DMS8); assay: Adenosine receptor TR-FRET binding assay (A3); conditions: inhibition of binding of 100 nM CA200645, CHO cell membranes
# human Adenosine A3 receptor, sequence (P0DMS8 whole entry): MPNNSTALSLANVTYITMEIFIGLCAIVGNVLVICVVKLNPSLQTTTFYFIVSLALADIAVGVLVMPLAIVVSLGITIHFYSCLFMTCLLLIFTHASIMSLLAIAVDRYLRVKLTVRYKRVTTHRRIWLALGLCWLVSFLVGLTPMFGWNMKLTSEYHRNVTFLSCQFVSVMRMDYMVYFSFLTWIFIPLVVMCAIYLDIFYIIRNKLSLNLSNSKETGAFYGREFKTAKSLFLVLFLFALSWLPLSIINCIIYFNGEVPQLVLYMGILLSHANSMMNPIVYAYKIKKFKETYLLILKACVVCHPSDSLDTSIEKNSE
# Protocol: as §1, §2, §3
# human Adenosine A1 receptor, sequence (P30542 whole entry): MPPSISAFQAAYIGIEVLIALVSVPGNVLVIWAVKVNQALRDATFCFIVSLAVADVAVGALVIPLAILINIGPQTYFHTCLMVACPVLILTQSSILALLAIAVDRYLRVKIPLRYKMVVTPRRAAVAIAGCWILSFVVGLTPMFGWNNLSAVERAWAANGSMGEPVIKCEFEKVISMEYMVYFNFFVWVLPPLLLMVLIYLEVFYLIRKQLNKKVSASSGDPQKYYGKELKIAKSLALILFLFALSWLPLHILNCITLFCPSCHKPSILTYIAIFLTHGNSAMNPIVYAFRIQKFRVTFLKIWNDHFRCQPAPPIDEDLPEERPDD
Structure (SMILES),Ki [1] [nM],Ki [2] [nM],Ki [3] [nM],Ki [4] [nM]
Cc1cc(-c2sc(NC(=O)N3CCN[C@@H](C(C)(C)O)C3)nc2-c2cccc(C#N)c2)cc(Cl)n1 [Example 3.10],135,8.17,12.2,144
"COCC1(C#N)CCN(C(=O)Nc2nc(-c3cccc(C#N)c3)c(-c3cc(C)nc(C)c3)s2)CC1 [Example 4.6, 4-Cyano-N-[4-(3-cyanophenyl)-5-(2,6-dimethyl-4-pyridyl)thiazol-2-yl]-4-(methoxymethyl)piperidine-1-carboxamide]",41,0.18,1.2,170
"Cc1cc(-c2sc(NC(=O)N3CCO[C@@H](CO)C3)nc2-c2cccc(C#N)c2)cc(C)n1 [Example 4.16, (2R)-N-[4-(3-Cyanophenyl)-5-(2,6-dimethyl-4-pyridyl)thiazol-2-yl]-2-(hydroxymethyl)morpholine-4-carboxamide]",41,0.9,2.2,265
"Cc1cc(-c2sc(NC(=O)N3CCO[C@H](CO)C3)nc2-c2cccc(C#N)c2)cc(C)n1 [Example 4.21, (2S)-N-[4-(3-Cyanophenyl)-5-(2,6-dimethyl-4-pyridyl)thiazol-2-yl]-2-(hydroxymethyl)morpholine-4-carboxamide]",10,0.3,1,265
"Cc1cc(-c2sc(NC(=O)N3CCS(=O)(=O)CC3)nc2-c2cccc(C#N)c2)cc(C)n1 [Example 4.27, N-[4-(3-Cyanophenyl)-5-(2,6-dimethyl-4-pyridyl)thiazol-2-yl]-1,1-dioxo-1,4-thiazinane-4-carboxamide]",6,0.1,0.8,423
"Cc1cc(-c2sc(NC(=O)N3CCN(CCO)C(=O)C3)nc2-c2cccc(C#N)c2)cc(C)n1 [Example 4.31, N-[4-(3-Cyanophenyl)-5-(2,6-dimethyl-4-pyridyl)thiazol-2-yl]-4-(2-hydroxyethyl)-3-oxo-piperazine-1-carboxamide]",210,3.75,4.7,425
"Cc1cc(-c2sc(NC(=O)N3CC(C(C)(C)O)C3)nc2-c2cccc(C#N)c2)cc(C)n1 [Example 4.33, N-[4-(3-Cyanophenyl)-5-(2,6-dimethyl-4-pyridyl)thiazol-2-yl]-3-(1-hydroxy-1-methyl-ethyl)azetidine-1-carboxamide]",62,1.91,5.9,410
"Cc1cc(-c2sc(NC(=O)N3CCN[C@@H](C(=O)O)C3)nc2-c2cccc(C#N)c2)cc(Cl)n1 [Example 5, (2R)-4-[[5-(2-Chloro-6-methyl-4-pyridyl)-4-(3-cyanophenyl)thiazol-2-yl]carbamoyl]piperazine-2-carboxylic acid]",601,5.75,5.5,696
"COC(=O)[C@H]1CN(C(=O)Nc2nc(-c3cccc(C#N)c3)c(-c3cc(C)nc(Cl)c3)s2)CCN1 [Example 5.1, Methyl (2R)-4-[[5-(2-chloro-6-methyl-4-pyridyl)-4-(3-cyanophenyl)thiazol-2-yl]carbamoyl]piperazine-2-carboxylate]",45,0.62,1.6,229
"Cc1cc(-c2sc(NC(=O)N3CCN[C@@H](CO)C3)nc2-c2cccc(C#N)c2)cc(Cl)n1 [Example 5.3, (3R)-N-[5-(2-Chloro-6-methyl-4-pyridyl)-4-(3-cyanophenyl)thiazol-2-yl]-3-(hydroxymethyl)piperazine-1-carboxamide]",90,2.31,2.1,98
"Cc1cc(-c2sc(NC(=O)N3CCN[C@@H](C(N)=O)C3)nc2-c2cccc(C#N)c2)cc(Cl)n1 [Example 5.7, (3R)-N1-[5-(2-Chloro-6-methyl-4-pyridyl)-4-(3-cyanophenyl)thiazol-2-yl]piperazine-1,3-dicarboxamide]",48,2.9,1.8,247
"Cc1cc(-c2sc(NC(=O)N3CC[C@H](C(N)=O)C3)nc2-c2cccc(C#N)c2)cc(C)n1 [Example 6.3, (3S)-N1-[4-(3-Cyanophenyl)-5-(2,6-dimethyl-4-pyridyl)thiazol-2-yl]pyrrolidine-1,3-dicarboxamide]",32,0.87,1.5,125
"Cc1cc(-c2sc(NC(=O)N3CC[C@@H](C(N)=O)C3)nc2-c2cccc(C#N)c2)cc(C)n1 [Example 6.8, (3R)-N1-[4-(3-Cyanophenyl)-5-(2,6-dimethyl-4-pyridyl)thiazol-2-yl]pyrrolidine-1,3-dicarboxamide]",23,0.72,1.1,312
"Cc1cc(-c2sc(NC(=O)N3CC(=O)N4CCCCC4C3)nc2-c2cccc(C#N)c2)cc(C)n1 (stereo not shown) [Example 6.15, N-[4-(3-Cyanophenyl)-5-(2,6-dimethyl-4-pyridyl)thiazol-2-yl]-4-oxo-3,6,7,8,9,9a-hexahydro-1H-pyrido[1,2-a]pyrazine-2-carboxamide]",263,2.02,5.9,259
"Cc1cc(-c2sc(NC(=O)N3CCN4CCNC(=O)C4C3)nc2-c2cccc(C#N)c2)cc(C)n1 (stereo not shown) [Example 6.16, N-[4-(3-Cyanophenyl)-5-(2,6-dimethyl-4-pyridyl)thiazol-2-yl]-9-oxo-3,4,6,7,8,9a-hexahydro-1H-pyrazino[1,2-a]pyrazine-2-carboxamide]",422,3.99,17.6,565
"Cc1cc(-c2sc(NC(=O)N3CC[S+]([O-])CC3)nc2-c2cccc(C#N)c2)cc(C(F)F)n1 [Example 6.19, N-[4-(3-Cyanophenyl)-5-[2-(difluoromethyl)-6-methyl-4-pyridyl]thiazol-2-yl]-1-oxo-1,4-thiazinane-4-carboxamide]",20,0.61,1.1,130
"Cc1cc(-c2sc(NC(=O)N3CCC(n4cccn4)CC3)nc2-c2cccc(C#N)c2)cc(C)n1 [Example 6.21, N-[4-(3-Cyanophenyl)-5-(2,6-dimethyl-4-pyridyl)thiazol-2-yl]-4-pyrazol-1-yl-piperidine-1-carboxamide]",6,0.86,1.3,96
"Cc1cc(-c2sc(NC(=O)N3CCC(c4ncon4)CC3)nc2-c2cccc(C#N)c2)cc(C)n1 [Example 6.22, N-[4-(3-Cyanophenyl)-5-(2,6-dimethyl-4-pyridyl)thiazol-2-yl]-4-(1,2,4-oxadiazol-3-yl)piperidine-1-carboxamide]",4,0.38,1.8,107
"Cc1cc(-c2sc(NC(=O)N3CCN4C(=O)NC(=O)C4C3)nc2-c2cccc(C#N)c2)cc(C)n1 (stereo not shown) [Example 6.23, N-[4-(3-Cyanophenyl)-5-(2,6-dimethyl-4-pyridyl)thiazol-2-yl]-1,3-dioxo-5,6,8,8a-tetrahydroimidazo[1,5-a]pyrazine-7-carboxamide]",92,2.99,6.5,394
"Cc1cc(-c2sc(NC(=O)N3CCC(c4ncc[nH]4)CC3)nc2-c2cccc(C#N)c2)cc(C)n1 [Example 6.25, N-[4-(3-Cyanophenyl)-5-(2,6-dimethyl-4-pyridyl)thiazol-2-yl]-4-(1H-imidazol-2-yl)piperidine-1-carboxamide]",2,1.73,1.1,94
"Cc1cc(-c2sc(NC(=O)N3CCn4ccnc4C3)nc2-c2cccc(C#N)c2)cc(C)n1 [Example 6.27, N-[4-(3-Cyanophenyl)-5-(2,6-dimethyl-4-pyridyl)thiazol-2-yl]-6,8-dihydro-5H-imidazo[1,2-a]pyrazine-7-carboxamide]",45,1.01,1.4,151
"CNC(=O)C1CCN(C(=O)Nc2nc(-c3cccc(C#N)c3)c(-c3cc(C)nc(C)c3)s2)CC1 [Example 6.28, N1-[4-(3-Cyanophenyl)-5-(2,6-dimethyl-4-pyridyl)thiazol-2-yl]-N4-methyl-piperidine-1,4-dicarboxamide]",32,4.84,3.2,226
